Assays:
rat adipocyte cells = test: Cell test predictive of muscle toxicity, rat adipocyte cells; settings: 0.5 μM; 2 days culture
[1] = compared with other statins; cited from earlier work
human muscle cells [2] = test: Toxicity of commercial statins on human muscle cells; type: cell-based; settings: 0-1 μM; FIG. 4; total culture time 5 days
Protocol: These experiments were reproduced with human muscle cells in order to test the toxicity of the commercial statins.
The experimentation procedure is as follows.
On day 1 the media are changed. On day 3 staining is carried out.
The total culture time is 5 days.
After aspiration of the culture medium, the cells are washed with PBS then fixed with 100% ethanol. 10 minutes later the cells are washed with water then stained with a solution of 10% Giemsa for 10 minutes. The final step is washing with water.
Images of the cells are obtained with an inverted microscope (Nikon) equipped with a digital camera and a motorized stage.

human muscle cells [3] = test: Effect of Hepes buffer on long-term growth of human muscle cells; type: cell-based; settings: 15 mM in culture medium

Compound: CC[C@H](C)C(=O)O[C@H]1C[C@@H](C)C=C2C=C[C@H](C)[C@H](CC[C@@H]3C[C@@H](O)CC(=O)O3)[C@H]21 [Lovastatin]
- sensitivity of adipocyte cells (rat adipocyte cells): insensitive

Compound: COCc1c(C(C)C)nc(C(C)C)c(/C=C/[C@@H](O)C[C@@H](O)CC(=O)O)c1-c1ccc(F)cc1 [Cerivastatin]
- toxicity in human clinical use [1]: most toxic statin
- toxicity on human muscle cells (human muscle cells [2]): high toxicity

Compound: O=S(=O)(O)CCN1CCN(CCO)CC1 [Hepes]
- growth of human muscle cells in the long term (human muscle cells [3]): inhibits the growth
